{"source": "patent US20180360721A1", "about": "“PEPTIDE FOR STIMULATING MELANOGENESIS” (priority 2017, published 2018)", "system": "B16F10 cells", "experiment": "MTT assay of cell viability", "format": "cell-based, mouse", "settings": "different concentrations, 24, 48 or 72 hours", "protocol": "B16F10 is a melanoma cell line isolated from mouse skin (American Type Culture Collection, USA) and was cultured in phenol red-free Dulbecco's Modified Eagle Medium (DMEM) containing 10% (v/v) FBS and penicillin/streptomycin (100 IU/[…]) in 5% CO2 at 37° C.\nThe cells (2×10^3) in 100 μl complete DMEM were seeded in 96-well plates and treated with the peptide of SEQ ID NO: 1 at different concentrations. The cells treated with ddH2O was used as controls. Ten microliters of 5 mg/ml 3-(4,5-dimethyl-2-thiazolyl)-2,5-diphenyl-2H-tetrazolium bromide solution (MTT; Sigma) was added to each well and incubated at 37° C. for 3 hours. After that, 100 μl 10% SDS in 0.01N HCl was added to dissolve the MTT formazan crystals. The resultant optical density was measured by spectrophotometry at dual wavelengths, 550 and 630 nm.", "note": "Where a SMILES comes first, the peptide text is derived from it."}
{"smiles": "C[C@H](NC(=O)[C@H](CO)NC(=O)[C@@H](N)CC(N)=O)C(=O)N[C@H](C(=O)N[C@@H](CCC(=O)O)C(=O)N[C@@H](CCCNC(=N)N)C(=O)N[C@@H](CCC(=O)O)C(=O)O)[C@@H](C)O", "note": "[peptide of SEQ ID NO: 1, AsnSerAlaThrGluArgGlu] (H-NSATERE-OH)", "values": [{"measurement": "cell viability (MTT)", "value": "did not significantly affect the viability"}, {"measurement": "cell viability (MTT)", "setting": "listed as peptide having the amino acid sequence of SEQ ID NO: 1", "value": "did not significantly affect viability"}]}
